Test results taken from patent US20070264199A1, “Magnetic nanoparticle composition and methods for using the same” (priority 2005, published 2007).
Where two headings read alike, the source gives them in different places.

Key:
[1] = Drug loading in magnetic nanoparticles; format: physicochemical; conditions: for Total Drug Loading (Mean ± SEM): total drug added 10.0 % w/w, n = 2 or 3
Method: For incorporation in nanoparticles, hydrochloride salt of the drug (DOX.HCl) was converted to water-insoluble base (DOX) using established methods (Yolles, et al. (1978) Acta Pharm. Suec. 15:382-388). […] Stirring was continued overnight (˜16 hours) to allow partitioning of the drug into the oleic acid shell surrounding iron-oxide nanoparticles. Drug-loaded nanoparticles were separated from the unentrapped drug using a magnet (12200 Gauss; Edmund Scientific, Tonawanda, N.Y.). Nanoparticles were washed twice by re-suspending in distilled water and separated using a magnetic field. […] For drug extraction, 2 mL of 12.5% volume/volume methanolic solution in chloroform was added to the dried sample. The samples were shaken for 24 hours (Environ shaker, model no. 3527; Lab-Line Instruments, Melrose Park, Ill.). Since DOX has greater solubility in this combination of solvents than in methanol or chloroform alone, it was used for the extraction. Nanoparticles were centrifuged for 10 minutes at 16,000 g using an EPPENDORF® microcentrifuge (5417R; Eppendorf-Netheler-Hinz-GmbH, Hamburg, Germany). […] VARIAN® Inc., Walnut Creek, Calif.) at λex=485 nm and λem=591 nm. A standard plot was prepared under identical conditions to calculate the amount of drug loaded in the nanoparticles. There was no further increase in the amount of drug extracted when nanoparticles were kept for extraction for more than 24 hours. […] The cap was removed and ethanol was allowed to evaporate overnight. Magnetite nanoparticles were separated from the free drug using a magnetic field and particles were washed two times with distilled water.

[2] = Antiproliferative IC50 of paclitaxel, doxorubicin and combination, in solution or in magnetic nanoparticles
MCF-7 cells = assay: Confocal laser scanning microscopy of drug uptake and localization; format: cell-based; conditions: 2 hours of incubation
Method: MCF-7 cells were seeded in Bioptechs plates (Bioptechs, Butler, Pa.) at 50,000 cells/plate in 1 mL serum-containing medium 24 hours prior to the experiment. A dispersion of drug-loaded or void nanoparticles and drug solution (10 μM) were prepared in cell-culture medium as described herein. […] Cells were washed three times with PBS before imaging them under a confocal microscope (Zeiss Confocal microscope LSM410 equipped with argon-krypton laser; Zeiss, Thornwood, N.Y.) at λex=488 nm and a long-pass filter with a cut-on filter of 515 nm for detecting the emission light.

| Paclitaxel Loaded ([1]; added paclitaxel 5.0 % w/w + doxorubicin 5.0 % w/w) [% w/w] | Paclitaxel Loaded ([1]; added paclitaxel 10.0 % w/w, doxorubicin 0.0) [% w/w] | Total Drug Loading (Mean ± SEM) [1] [% w/w] | Doxorubicin Loaded ([1]; added doxorubicin 5.0 % w/w + paclitaxel 5.0 % w/w) [% w/w] | Doxorubicin Loaded ([1]; added doxorubicin 10.0 % w/w, paclitaxel 0.0) [% w/w] | SMILES | IC50 ([2]; read-out: IC50 Nanoparticle) [µg/mL] | IC50 ([2]; read-out: IC50 Soluble) [µg/mL] | intracellular localization of drug (MCF-7 cells) |
| --- | --- | --- | --- | --- | --- | --- | --- | --- |
| 4.8 | 9.5 | 9.5 |  |  | CC(=O)O[C@H]1C(=O)[C@@]2(C)[C@H]([C@H](OC(=O)c3ccccc3)[C@]3(O)C[C@H](OC(=O)[C@H](O)[C@@H](NC(=O)c4ccccc4)c4ccccc4)C(C)=C1C3(C)C)[C@]1(OC(C)=O)CO[C@@H]1C[C@@H]2O [Paclitaxel] | 0.0106 ± 0.0006 | 0.0098 ± 0.0005 |  |
|  |  | 8.2 | 3.7 | 8.2 | COc1cccc2c1C(=O)c1c(O)c3c(c(O)c1C2=O)C[C@@](O)(C(=O)CO)C[C@@H]3O[C@H]1C[C@H](N)[C@H](O)[C@H](C)O1 [Doxorubicin] | 0.795 ± 0.177 | 0.103 ± 0.0178 | nuclear localization |
